Values of other authors, collected in patent publication US9863006B2, “Selective lysis of cells by ionic surfactants” (Biocartis NV, priority 2011, dated 2018).

Conditions: room temperature

CCCCCCCCCCCCOS(=O)(=O)[O-].[Na+] [sodium dodecyl sulfate]
time to cross the membrane: hours or days
